According to ChEMBL document CHEMBL6153138, “Discovery of Novel Aromatic Urea-Imidazole Salt Derivatives for Cancer Therapy via Targeting ERK1/2” (J Med Chem, 2025):
Calls of active or inactive are those of the source. No cut-off for these calls is given here.

Key:
MCF7 [1] = test: Induction of autophagy in human MCF7 cells harbouring ATG5 knockout assessed as increase in LC3B expression at 1 uM incubated for 48 hrs by Western blot analysis; format: functional, cell-based
[2] = biological target: Mitogen-activated protein kinase 1 (Homo sapiens, UniProt P28482); test: Inhibition of ERK2 (unknown origin) incubated for 60 mins by luminescence based ADP-Glo kinase assay
4T1 [3] = test: Antiproliferative activity against mouse 4T1 cells incubated for 48 hrs by CCK-8 method; format: functional, cell-based; conditions: 4T1, 48 h
[4] = AUC (0 to t) in Sprague-Dawley rat at 1 mg/kg, iv by LC-MS/MS analysis; format: ADME, organism-based; conditions: in vivo
[5] = AUC (0 to infinity) in Sprague-Dawley rat at 1 mg/kg, iv by LC-MS/MS analysis; format: ADME, organism-based; conditions: in vivo
[6] = Half life in Sprague-Dawley rat at 10 mg/kg, po by LC-MS/MS analysis; format: ADME, organism-based; conditions: in vivo
[7] = biological target: T1, Mitogen-activated protein kinase 3 (Homo sapiens, UniProt P27361); test: Induction of thermal stabilization of ERK1 (unknown origin) at 10 uM by differential scanning fluorimetry analysis
[8] = biological target: T1, Mitogen-activated protein kinase 3; test: Inhibition of ERK1 (unknown origin) incubated for 60 mins by luminescence based ADP-Glo kinase assay
MCF7 [9] = test: Upregulation of ERK1/2 phosphorylation expression in human MCF7 cells at 2 uM measured after 8 hrs by Western blot analysis; format: functional, cell-based
MCF7 [10] = test: Activation of ERK1/2 pathway in human MCF7 cells assessed as increase in EGF-induced c-Myc phosphorylation at 2 uM incubated for 30 mins by Western blot analysis; format: cell-based
MCF7 [11] = test: Inhibition of colony formation in human MCF7 cells harbouring ERK1 knockout at 1 uM incubated for 48 hrs by crystal violet staining based microscopic analysis; format: functional, cell-based
[12] = biological target: Ribosomal protein S6 kinase alpha-1 (Homo sapiens, UniProt Q15418); test: Inhibition of human RSK1 at 10000 nM by DiscoverX KINOMEscan assay relative to control
MCF7 [13] = test: Downregulation of N-cadherin expression in human MCF7 cells at 0.5 to 2 uM; format: functional, cell-based; conditions: dose 0.5-2 µM
MCF7 [14] = test: Induction of apoptosis in human MCF7 cells assessed as increase in caspase-3 cleavage at 0.5 to 2 uM by Western blot analysis; format: functional, cell-based; conditions: dose 0.5-2 µM
MCF7 [15] = test: Induction of apoptosis in human MCF7 cells assessed as increase in Bax/Bcl-2 ratio at 0.5 to 2 uM by Western blot analysis; format: functional, cell-based; conditions: dose 0.5-2 µM
Mitochondrial membrane = test: Induction of mitochondrial membrane potential loss in human MCF7 cells assessed as increase in JC-1 monomers by measuring increase in green fluorescence at 1 uM by flow cytometry analysis (reference value: 38.0%); format: cell membranes
MCF7 [16] = test: Induction of apoptosis in human MCF7 cells assessed as early apoptotic cells at 2 uM incubated for 48 hrs by Annexin V/FITC and PI staining based flow cytometry analysis (reference value: 1.1%); format: functional
MCF7 [17] = test: Induction of apoptosis in human MCF7 cells assessed as late apoptotic cells at 1 uM incubated for 48 hrs by Annexin V/FITC and PI staining based flow cytometry analysis (reference value: 2.5%); format: functional
MCF7 [18] = test: Induction of apoptosis in human MCF7 cells assessed as late apoptotic cells at 2 uM incubated for 48 hrs by Annexin V/FITC and PI staining based flow cytometry analysis (reference value: 2.5%); format: functional
MCF7 [19] = test: Induction of autophagy in human MCF7 cells assessed as increase in LC3B expression at 1 uM incubated for 48 hrs in presence of 3-methyladenine by Western blot analysis; format: functional, cell-based
MCF7 [20] = test: Induction of autophagy in human MCF7 cells harbouring beclin1 knockout assessed as increase in LC3B expression at 1 uM incubated for 48 hrs by Western blot analysis; format: functional, cell-based
MCF7 [21] = test: Induction of autophagic flux in human MCF7 cells assessed as increase in LC3B-II expression at 1 uM incubated for 48 hrs in presence of chloroquine by Western blot analysis; format: functional, cell-based
MCF7 [22] = test: Inhibition of colony formation in human MCF7 cells at 1 uM incubated for 6 hrs in presence of 3-methyladenine by crystal violet staining based analysis; format: functional, cell-based
MCF7 [23] = test: Inhibition of colony formation in human MCF7 cells at 1 uM incubated for 6 hrs in presence of chloroquine by crystal violet staining based analysis; format: functional, cell-based
MCF7 [24] = test: Upregulation of caspase3 protein expression in human MCF-7 cells at 1 uM incubated for 6 hrs in presence of 3-methyladenine by Western blot analysis; format: functional, cell-based
MCF7 [25] = test: Upregulation of C-caspase3 protein expression in human MCF-7 cells at 1 uM incubated for 6 hrs in presence of chloroquine by Western blot analysis; format: functional, cell-based
MCF7 [26] = test: Induction of apoptosis in human MCF7 cells assessed as early apoptotic cells at 1 uM incubated for 48 hrs by Annexin V/FITC and PI staining based flow cytometry analysis (reference value: 6.64%); format: functional
4T1 [27] = test: Antitumor activity against mouse 4T1 cells implanted in female BALB/c mouse model assessed as tumor growth inhibition at 25 mg/kg, po qd measured for 18 days relative to control; format: functional; conditions: 4T1, 432 h, time 18 day, read-out: TGI
[28] = Toxicity in female BALB/c mouse assessed as change in body weight at 25 to 50 mg/kg, po qd measured after 18 days; format: organism-based; conditions: in vivo, 432 h, dose 25-50 mg/kg, time 18 day
[29] = Toxicity in female BALB/c mouse assessed as effect GLU level in serum at 25 to 50 mg/kg, po qd measured after 18 days by biochemical analysis; format: organism-based; conditions: in vivo, 432 h, dose 25-50 mg/kg, time 18 day
4T1 [30] = test: Antitumor activity against mouse 4T1 cells implanted in female BALB/c mouse model assessed as increase in ERK1/2 phosphorylation at 50 mg/kg, po qd measured from 30 mins to 8 hrs by immunohistochemical analysis; format: functional, organism-based; conditions: time 30-480 min
[31] = Toxicity in female BALB/c mouse assessed as change in body weight at 50 mg/kg, po qd measured after 18 days in presence of chloroquine; format: organism-based; conditions: in vivo, 432 h, time 18 day
[32] = Toxicity in female BALB/c mouse assessed as effect on spleen at 50 mg/kg, po qd measured after 18 days in presence of chloroquine by H and E staining based analysis; format: organism-based; conditions: in vivo, 432 h, time 18 day
[33] = Toxicity in female BALB/c mouse assessed as effect on kidney at 50 mg/kg, po qd measured after 18 days in presence of chloroquine by H and E staining based analysis; format: organism-based; conditions: in vivo, 432 h, time 18 day
4T1 [34] = test: Antitumor activity against mouse 4T1 cells implanted in female BALB/c mouse model assessed as increase in LC3B expression administered as po by immunohistochemical analysis; format: functional, organism-based; conditions: dose 25-50 mg/kg
4T1-Luc [35] = test: Anti-metastatic activity in mouse 4T1-Luc cells assessed as reduction in enlarged alveolar space at 25 to 50 mg/kg, po measured after 20 days by H and E staining based analysis; format: functional, organism-based; conditions: dose 25-50 mg/kg, time 20.0 day
4T1-Luc [36] = test: Anti-metastatic activity in mouse 4T1-Luc cells assessed as reduction in destroyed alveolar wall at 25 to 50 mg/kg, po measured after 20 days by H and E staining based analysis; format: functional, organism-based; conditions: dose 25-50 mg/kg, time 20.0 day

T1 sequence (P27361 whole entry): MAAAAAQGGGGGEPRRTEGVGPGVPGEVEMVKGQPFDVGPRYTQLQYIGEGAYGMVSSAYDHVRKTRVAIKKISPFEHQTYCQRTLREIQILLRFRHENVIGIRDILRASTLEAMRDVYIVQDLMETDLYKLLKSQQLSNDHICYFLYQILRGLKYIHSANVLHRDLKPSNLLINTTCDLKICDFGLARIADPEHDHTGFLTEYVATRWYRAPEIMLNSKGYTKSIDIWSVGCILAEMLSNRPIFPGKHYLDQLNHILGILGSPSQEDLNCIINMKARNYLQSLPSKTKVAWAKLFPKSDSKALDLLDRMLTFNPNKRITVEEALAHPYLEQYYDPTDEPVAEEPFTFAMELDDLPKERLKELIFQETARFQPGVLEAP
Ribosomal protein S6 kinase alpha-1, sequence (Q15418 whole entry): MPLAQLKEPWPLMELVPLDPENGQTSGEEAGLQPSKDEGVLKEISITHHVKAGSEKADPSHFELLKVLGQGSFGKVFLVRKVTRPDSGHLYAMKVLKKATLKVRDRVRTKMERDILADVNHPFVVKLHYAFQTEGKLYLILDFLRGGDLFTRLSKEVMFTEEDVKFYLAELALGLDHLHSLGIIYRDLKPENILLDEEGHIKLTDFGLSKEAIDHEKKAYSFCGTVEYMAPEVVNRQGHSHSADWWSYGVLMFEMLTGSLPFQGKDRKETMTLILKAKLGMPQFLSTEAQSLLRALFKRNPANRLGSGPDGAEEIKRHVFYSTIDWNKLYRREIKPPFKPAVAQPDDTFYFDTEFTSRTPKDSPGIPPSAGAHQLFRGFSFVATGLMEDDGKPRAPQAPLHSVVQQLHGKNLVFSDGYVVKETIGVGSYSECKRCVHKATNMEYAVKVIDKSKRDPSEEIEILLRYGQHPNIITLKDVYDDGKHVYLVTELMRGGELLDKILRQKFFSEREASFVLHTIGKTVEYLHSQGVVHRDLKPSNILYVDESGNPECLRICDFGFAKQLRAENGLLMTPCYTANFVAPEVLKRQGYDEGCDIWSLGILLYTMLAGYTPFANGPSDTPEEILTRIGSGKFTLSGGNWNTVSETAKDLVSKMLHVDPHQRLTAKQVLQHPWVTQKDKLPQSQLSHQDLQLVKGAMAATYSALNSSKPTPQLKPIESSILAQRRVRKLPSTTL
Mitogen-activated protein kinase 1, sequence (P28482 whole entry): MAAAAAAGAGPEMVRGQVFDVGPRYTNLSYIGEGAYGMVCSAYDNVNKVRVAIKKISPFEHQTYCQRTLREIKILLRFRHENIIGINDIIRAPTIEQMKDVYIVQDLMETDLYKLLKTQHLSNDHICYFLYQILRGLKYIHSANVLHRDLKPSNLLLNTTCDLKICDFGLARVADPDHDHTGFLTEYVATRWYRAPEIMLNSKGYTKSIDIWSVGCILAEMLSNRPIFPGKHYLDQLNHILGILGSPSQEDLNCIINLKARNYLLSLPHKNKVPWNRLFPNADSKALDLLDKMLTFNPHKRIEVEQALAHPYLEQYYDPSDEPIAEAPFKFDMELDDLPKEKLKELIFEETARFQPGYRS

**Q.** With `O=C(Nc1cc(C(F)(F)F)cc(C(F)(F)F)c1)N[C@@H](Cc1ccccc1)Cn1c[n+](Cc2ccc3ccccc3c2)c2ccccc21.[Br-]` as the compound, how does the Activity (MCF7 [1]) read?
**A.** inactive

**Q.** What about the IC50 [2] of the same compound?
**A.** 97.9 nM

**Q.** What about the IC50 (4T1 [3]) of the same compound?
**A.** 2760 nM

**Q.** What about the AUC(0-t) [4] of the same compound?
**A.** 1040 ng·h/mL

**Q.** And the AUC(0-inf) [5]?
**A.** 1100 ng·h/mL

**Q.** And the half-life [6]?
**A.** 2.51 h

**Q.** And the Activity [7]?
**A.** Active

**Q.** And the IC50 [8]?
**A.** 91.7 nM

**Q.** What about the Activity (MCF7 [9]) of the same compound?
**A.** Active

**Q.** And the Activity (MCF7 [10])?
**A.** inactive

**Q.** And the inhibition (MCF7 [11])?
**A.** inactive

**Q.** What about the inhibition [12] of the same compound?
**A.** 8%

**Q.** What about the Activity (MCF7 [13]) of the same compound?
**A.** Active

**Q.** And the Activity (MCF7 [14])?
**A.** Active

**Q.** What about the Activity (MCF7 [15]) of the same compound?
**A.** Active

**Q.** And the Activity (Mitochondrial membrane)?
**A.** 48.9%

**Q.** And the Activity (MCF7 [16])?
**A.** 12.9%

**Q.** And the Activity (MCF7 [17])?
**A.** 9.6%

**Q.** What about the Activity (MCF7 [18]) of the same compound?
**A.** 14.8%

**Q.** And the Activity (MCF7 [19])?
**A.** inactive

**Q.** And the Activity (MCF7 [20])?
**A.** inactive

**Q.** And the Activity (MCF7 [21])?
**A.** Active

**Q.** And the inhibition (MCF7 [22])?
**A.** Active

**Q.** And the inhibition (MCF7 [23])?
**A.** Active

**Q.** And the Activity (MCF7 [24])?
**A.** Active

**Q.** What about the Activity (MCF7 [25]) of the same compound?
**A.** Active

**Q.** What about the Activity (MCF7 [26]) of the same compound?
**A.** 4.58%

**Q.** And the inhibition in vivo at 25 mg/kg (4T1 [27])?
**A.** 40.7%

**Q.** And the Activity [28]?
**A.** Non-toxic

**Q.** What about the Activity [29] of the same compound?
**A.** Non-toxic

**Q.** And the Activity (4T1 [30])?
**A.** Active

**Q.** And the Activity [31]?
**A.** Non-toxic

**Q.** And the Activity [32]?
**A.** Non-toxic

**Q.** What about the Activity [33] of the same compound?
**A.** Non-toxic

**Q.** What about the Activity (4T1 [34]) of the same compound?
**A.** Dose-dependent-effect

**Q.** And the Activity (4T1-Luc [35])?
**A.** Active

**Q.** What about the Activity (4T1-Luc [36]) of the same compound?
**A.** Active
